# What was measured:
# Assay type in all cases: in vivo, dog
# Conditions in all cases: Konzett data
# 5-HT = assay: Konzett bronchodilator assay, 5-HT
# Hist = assay: Konzett bronchodilator assay, Hist
# Ach = assay: Konzett bronchodilator assay, Ach
smiles,measurement,setting,value
"CCCCCC(C)(O)/C=C/C1C(O)CC(=O)C1C/C=C\CCCCO (racemic) [dl-1,11,15-trihydroxymethyl-9-oxo-15-methyl-5-cis-13-trans prostadiene]",5-HT (ED50 g/kg),5-HT,0.0083 g/kg
same,Hist (ED50 g/kg),Hist,0.00075 g/kg
same,Ach (ED50 g/kg),Ach,0.0043 g/kg
